No end group written: not given here.
Target: IR (Homo sapiens, UniProt P06213)
Assay: IR-Kd
Parameters: replacing the transmembrane domain and the intracellular domain of IR with constant domains from immunoglobulin Fc or λ subunits; made in house; host or cells: human embryonic kidney 293 cells (Bass et al.)
Description: Table printed on a drawing sheet, FIG. 5B
The patent's description of the figure: FIG. 5A: Summary of specific representative amino acid sequences from Formulas 1, 4, 6, and 10 (SEQ ID NOS:1155-1180).
FIG. 5B: Summary of specific representative amino acid sequences from Formulas 1, 4, 6, and 10 (SEQ ID NOS:1181-1220).
First copying reader's note: The scan is skewed, so values in the right-hand columns sit slightly higher than their clone names, and their rows were assigned by following the ruled lines.
Where the first naming reader finds the target: head: IR-Kd

IR, sequence (P06213 28-758 limits assumed): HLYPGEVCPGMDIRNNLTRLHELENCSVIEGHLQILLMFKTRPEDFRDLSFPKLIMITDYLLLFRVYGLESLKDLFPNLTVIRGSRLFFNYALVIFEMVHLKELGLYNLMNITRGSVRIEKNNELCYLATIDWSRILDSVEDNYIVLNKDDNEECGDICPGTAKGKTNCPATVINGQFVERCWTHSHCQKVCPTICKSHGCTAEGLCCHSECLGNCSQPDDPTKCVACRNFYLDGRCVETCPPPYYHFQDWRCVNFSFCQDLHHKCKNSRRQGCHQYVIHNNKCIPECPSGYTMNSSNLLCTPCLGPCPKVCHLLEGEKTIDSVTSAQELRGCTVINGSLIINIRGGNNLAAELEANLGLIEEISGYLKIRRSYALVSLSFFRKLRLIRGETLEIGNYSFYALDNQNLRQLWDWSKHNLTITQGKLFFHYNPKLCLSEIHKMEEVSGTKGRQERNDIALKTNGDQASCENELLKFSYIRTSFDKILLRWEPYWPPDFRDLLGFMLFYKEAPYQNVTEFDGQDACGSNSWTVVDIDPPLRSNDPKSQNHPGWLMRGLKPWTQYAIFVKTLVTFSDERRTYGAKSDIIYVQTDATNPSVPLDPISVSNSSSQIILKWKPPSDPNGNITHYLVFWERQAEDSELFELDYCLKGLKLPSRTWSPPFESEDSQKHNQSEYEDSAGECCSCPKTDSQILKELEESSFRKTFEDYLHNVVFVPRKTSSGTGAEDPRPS
IR, sequence (P06213 763-1382 limits assumed): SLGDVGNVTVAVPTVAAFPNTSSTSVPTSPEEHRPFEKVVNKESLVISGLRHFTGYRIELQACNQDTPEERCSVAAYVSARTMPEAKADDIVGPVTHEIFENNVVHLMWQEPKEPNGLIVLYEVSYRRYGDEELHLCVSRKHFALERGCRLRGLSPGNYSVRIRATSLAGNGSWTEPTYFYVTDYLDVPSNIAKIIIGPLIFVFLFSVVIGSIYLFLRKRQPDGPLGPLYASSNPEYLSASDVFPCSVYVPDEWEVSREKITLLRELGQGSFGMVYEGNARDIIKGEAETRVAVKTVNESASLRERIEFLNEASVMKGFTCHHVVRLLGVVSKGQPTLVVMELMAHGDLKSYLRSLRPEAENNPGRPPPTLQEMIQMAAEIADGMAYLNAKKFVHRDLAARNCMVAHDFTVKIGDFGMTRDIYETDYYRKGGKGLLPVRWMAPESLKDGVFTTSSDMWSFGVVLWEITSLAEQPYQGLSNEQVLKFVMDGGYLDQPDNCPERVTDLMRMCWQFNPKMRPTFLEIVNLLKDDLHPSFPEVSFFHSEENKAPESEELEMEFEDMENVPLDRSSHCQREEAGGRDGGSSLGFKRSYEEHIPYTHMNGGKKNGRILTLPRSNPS

- Kd: > 20 µM
Sequence: AFYDWFAKK [Peptide S167]
